For orientation: IC50 means the concentration that inhibits the measured activity by half.

One test relates to MCF10A. Kind of test: MTT cytotoxicity assay, MCF10A non-tumour control cells. It is filed as cell-based. To be noted: Homo sapiens, MCF-10A, MTT assay, 96 h incubation, non-tumour control cells, read-out: IC50 MCF10A. Here is the method: (§1) The antiproliferative activity of the resveratrol analogues was investigated using a human breast cell line panel, which has been characterised for CYP1 expression in our laboratories. IC50 values for both cis- and trans-isomers were determined using a standard 3-[4,5-dimethylthiazol-2-yl]-2,5-diphenyl tetrazolium bromide (MTT) cell viability assay and are shown in Table 1 (trans-stilbene analogues) and Table 2 (cis-stilbene analogues).
MCF10A cells are non-tumourigenic human mammary epithelial in origin which have been spontaneously immortalised without chemical intervention. CYP1 activity in MCF10A cells is negligible. […] Thus, MCF10A cell line is commonly used as a control in cytotoxicity assays.
(§2) A standard MTT (3-[4,5-dimethylthiazol-2-yl]-2,5-diphenyl tetrazolium bromide) cell viability assay was employed to evaluate the cytotoxicity of the stilbenes prepared. The MTT assay is a rapid quantitative spectrophotometric method for determining cell growth (viability) due to necrosis or apoptosis in monolayer-cultured cell lines in response to external factors. It is widely employed to evaluate the cytotoxicity of potential medicinal agents.
(§3) MCF7 cells were grown in RPMI-1640 medium with phenol red and 10% (v/v) heat-inactivated (heated to 56 °C for 45 min) foetal calf serum. MDA-468 cells were grown in RPMI-1640 medium with 10% (v/v) heat-inactivated foetal calf serum and L-glutamine (2 mM) without phenol red. MCF-10A cells were grown in Dulbecco’s modified Eagle’s medium/ Ham’s F-12 medium (1:1) with 5% (v/v) heat-inactivated foetal calf serum, epidermal growth factor (20 ng/mL), insulin ([…]) and hydrocortisone (500 ng/mL). Cells were maintained at 37 °C, 5% CO2/95% air with 100% humidity and passaged every 2–3 days using trypsin EDTA solution (0.25% w/v). Adhered cells at sub confluence were harvested for experimental use.
(§4) Aliquots of cell suspensions (100 µL at 2 × 10^3 cells per ml) were dispensed into sterile 96-well microtiter flat-bottomed plates. For the MDA468 and MCF10A cell lines, the plates were incubated at 37 °C, 5% CO2/95% air with 100% humidity for 24 h prior to the addition of test compounds. For MCF7 cells, after allowing approximately 4 h for cells to adhere, 100 µL of medium containing TCDD (from 100 mM stock in DMSO) or medium with 0.2% (v/v) DMSO was added to give a final concentration of 10 nM TCDD and 0.1% (v/v) DMSO. After 24 h, the medium was aspirated and replaced with fresh medium (100 µL) before the addition of test compounds.
(§5) Then, 100 µL aliquots of test compounds were added within 30 min into the wells from a 100 mM stock solution in DMSO and serially diluted to give final concentrations of […], 0.01, 0.003, 0.001 and 0.0003 µM. […] The cells were allowed to grow for 96 h at 5% CO2, 37 °C, to give 80–90% confluence in the control wells, after which 50 µL of 2 mg/mL MTT (final concentration 0.4 mg/mL) in sterile phosphate buffer was added to each well and the plates were further incubated for 2 h. All medium was aspirated and the formazan precipitate generated by viable cells was solubilised by 150 µL of DMSO. All the plates were vortexed and the absorbance at 540 nm was determined using a SpectraMax M5 plate reader (Molecular Devices, Wokingham, UK).
(§6) Results were expressed as a percentage of the control value versus the negative logarithm of the molar drug concentration range using GraphPad Prism (Version 5.00). Relative toxicities of each compound within each cell line were expressed as 50% of growth inhibition (IC50). All determinations were carried out in quadruplicate.

Another test concerns MDA468. The experiment in a line: MTT cytotoxicity assay, MDA468 cells. It is filed as cell-based, human. To be noted: for IC50: Homo sapiens, MTT assay, 96 h incubation, read-out: IC50 MDA468; for TS = tumour selectivity = IC50 MCF10A/IC50 MDA468: ratio of IC50 values. Here is the method: as §1
MDA468 cells represent an aggressive multi-drug-resistant tumour type and are ER negative but are aryl hydrocarbon (Ah) receptor positive in the presence of TCDD [46].
as §2, §3, §4, §5, §6
On the technique in general: Formazan colour is commonly taken as a measure of viable cells.

Another test has as its system MCF7. The experiment in a line: MTT cytotoxicity assay, MCF7 cells (uninduced). It is filed as cell-based, human. To be noted: Homo sapiens, MTT assay, 96 h incubation, 37 °C, means of quadruplicate, read-out: IC50 MCF7. The protocol:
as §1
(§7) MCF7 cells are both ER positive and Ah receptor positive and have been well documented for their CYP1 expression, and it is known that treatment with TCDD elevates CYP1A1 and CYP1B1 expression. The cells were treated with DMSO (0.1%) for 24 h for constitutive expression, whereas for inducible CYP1 expression, the cells were treated with TCDD (10 nM) for 24 h.
as §2, §3, §4, §5, §6

Test [1] concerns human breast cell line panel. The experiment in a line: MTT cytotoxicity assay, statements for all cell lines of the panel. The class given is cell-based. Particulars: MCF7, MCF7 (TCDD), MCF10A, MDA468, summary of the text; for IC50: Homo sapiens, read-out: IC50 for all cell lines tested. Here is the method: as §1, §2, §3, §4, §5, §6
The test system of another test is MCF7 (TCDD). The experiment in a line: MTT cytotoxicity assay, TCDD-induced MCF7 cells. It is filed as cell-based, human. To be noted: Homo sapiens, MCF7, MTT assay, 96 h incubation; cells induced with 10 nM TCDD for 24 h; read-out: IC50 MCF7 (TCDD). Here is the method: as §1, §7, §2, §3, §4, §5, §6

SMILES strings stand for the structures. Like-named read-outs stand apart in the source and are kept apart here. Some results are limits rather than exact numbers.

Take `COc1ccc(C=Cc2cc(OC)c(OC)c(OC)c2)cc1O` [DMU214, 3,4,5,4′-tetramethoxy-3′-hydroxy stilbene]: the IC50 in the test on MCF10A (96 h) is 0.05 µM; with MDA468, 0.05 µM; with MCF7 (MCF7, 96 h) it was 0.06 µM; in the test on MCF7 (TCDD), 0.11 µM. Moreover, in the test on MDA468, the “TS = tumour selectivity = IC50 MCF10A/IC50 MDA468” value was 1. Also, the “IC50 for all cell lines tested” value in test [1] is “sub-micromolar IC50 values”.

For `COc1cc(C=Cc2ccc(O)c(O)c2)cc(OC)c1OC` [DMU283, 3,4,5-trimethoxy-3′,4′-dihydroxy stilbene], the IC50 worked out at 0.008 µM in the test with MCF10A (96 h); 0.05 µM in the test with MDA468; 0.02 µM in the test with MCF7 (MCF7, 96 h); 0.14 µM in the test with MCF7 (TCDD). In the test on MDA468, the “TS = tumour selectivity = IC50 MCF10A/IC50 MDA468” value stood at 0.16. Besides, the “IC50 for all cell lines tested” value in test [1] is “sub-micromolar IC50 values”.

With `COc1cc(/C=C/c2ccccc2)cc(OC)c1OC` [DMU507], the IC50 in the test on MCF10A (96 h) was 70 µM; with MDA468 it was 10 µM; in the test with MCF7 (MCF7, 96 h) it was 50 µM; in test [1], greater than 10 µM; in the test on MCF7 (TCDD), 50 µM. In the test on MDA468, the “TS = tumour selectivity = IC50 MCF10A/IC50 MDA468” value was 7.

For the compound `COc1cc(/C=C\c2ccccc2)cc(OC)c1OC` [DMU508], the half-maximal inhibitory concentration (IC50) in the test with MCF10A (96 h) is 7 µM; with MDA468, 9 µM; in the test on MCF7 (MCF7, 96 h), 5 µM; in test [1], 4 to 9 µM; in the test with MCF7 (TCDD), 4 µM. For the same compound, the “TS = tumour selectivity = IC50 MCF10A/IC50 MDA468” value in the test on MDA468 is reported as 0.9.

On to `COc1ccc(/C=C/c2ccc(OC)c(OC)c2OC)cc1` [DMU547], for which the IC50 came out at 20 µM in the test on MCF10A, 4.5 µM with MDA468, 80 µM in the test on MCF7 (MCF7) and 1 µM in the test on MCF7 (TCDD). For the same compound, in the test with MDA468, the “TS = tumour selectivity = IC50 MCF10A/IC50 MDA468” value was determined as 4.

With `COc1ccc(/C=C\c2ccc(OC)c(OC)c2OC)cc1` [DMU548], the IC50 with MCF10A is 100 µM; in the test on MDA468, 30 µM; in the test with MCF7 (MCF7), 8 µM; with MCF7 (TCDD), 7.1 µM.

Consider `COc1cc(/C=C/c2ccc(Cl)cc2)cc(OC)c1OC` [DMU555], for which the IC50 came to 8 µM with MCF10A, 12 µM in the test on MDA468, 100 µM in the test on MCF7 (MCF7) and 100 µM in the test with MCF7 (TCDD). For the same compound, the “TS = tumour selectivity = IC50 MCF10A/IC50 MDA468” value with MDA468 came out at 0.7.

As for `COc1cc(/C=C\c2ccc(Cl)cc2)cc(OC)c1OC` [DMU556], the half-maximal inhibitory concentration (IC50) in the test with MCF10A stood at 35 µM; in the test with MDA468, 7 µM; in the test on MCF7 (MCF7), 0.8 µM; in the test with MCF7 (TCDD), 0.8 µM. Besides, the “TS = tumour selectivity = IC50 MCF10A/IC50 MDA468” value with MDA468 turned out to be 5.

For the compound `COc1cc(/C=C/c2ccc(Br)cc2)cc(OC)c1OC` [DMU557], the 50% inhibitory concentration (IC50) in the test on MCF10A was found to be 20 µM; in the test on MDA468, 7 µM; in the test on MCF7 (MCF7) it was 7 µM; in the test with MCF7 (TCDD) it was 8 µM. In addition, the “TS = tumour selectivity = IC50 MCF10A/IC50 MDA468” value in the test with MDA468 came to 3.

Turning to `COc1cc(/C=C\c2ccc(Br)cc2)cc(OC)c1OC` [DMU558], the IC50 came out at 0.05 µM in the test with MCF10A, 0.04 µM in the test with MDA468, 0.08 µM in the test on MCF7 (MCF7) and 0.05 µM in the test on MCF7 (TCDD). Besides, the “TS = tumour selectivity = IC50 MCF10A/IC50 MDA468” value in the test with MDA468 is 1.

Turning to `COc1ccc2cc(/C=C/c3cc(OC)c(OC)c(OC)c3)ccc2c1` [DMU567], the IC50 in the test on MCF10A (96 h) was found to be 0.11 µM; in the test with MDA468 it was 0.04 µM; in the test on MCF7 (MCF7, 96 h) it was 100 µM; with MCF7 (TCDD) it was 42 µM. The “TS = tumour selectivity = IC50 MCF10A/IC50 MDA468” value in the test on MDA468 is given as “three”; with MDA468 (listed as 567), 3.

Take `COc1cc(/C=C/c2ccc(OC)c3ccccc23)cc(OC)c1OC` [DMU569]: the concentration for half-maximal inhibition (IC50) is 40 µM in the test on MCF10A, 4.5 µM with MDA468, 30 µM in the test on MCF7 (MCF7) and 8.6 µM with MCF7 (TCDD). Moreover, the “TS = tumour selectivity = IC50 MCF10A/IC50 MDA468” value is “nine” with MDA468 and 9 in the test with MDA468 (listed as 569).

As for `COc1ccc(/C=C\c2cc(OC)c(OC)c(OC)c2)cc1OC` [DMU1024], the IC50 with MCF10A (96 h) amounted to 10 µM; with MDA468 it was 6 µM; in the test with MCF7 (MCF7, 96 h), 9 µM; in the test on MCF7 (TCDD), 9 µM. Also, the “TS = tumour selectivity = IC50 MCF10A/IC50 MDA468” value in the test on MDA468 turned out to be 2.

`COc1ccc(/C=C/c2cc(OC)c(OC)c(OC)c2)cc1OC` [DMU2417]: the IC50 with MCF10A (96 h) was 18 µM; with MDA468, 9 µM; in the test on MCF7 (MCF7, 96 h), 14 µM; in test [1], greater than 9 µM; in the test with MCF7 (TCDD), 14 µM. Moreover, in the test on MDA468, the “TS = tumour selectivity = IC50 MCF10A/IC50 MDA468” value turned out to be 2.

Consider `Oc1ccc(/C=C/c2cc(O)cc(O)c2)cc1` [Resveratrol, (E)-4,3′,5′-trihydroxy stilbene], for which the IC50 with MCF10A worked out at 50 µM; with MDA468 it was 29 µM; with MCF7 (MCF7), 31 µM; in the test with MCF7 (TCDD), 33 µM. In addition, the “TS = tumour selectivity = IC50 MCF10A/IC50 MDA468” value in the test with MDA468 is recorded as 1.7.

For the origin of these results see paper PMC10818546, “CYP1-Activation and Anticancer Properties of Synthetic Methoxylated Resveratrol Analogues” (Molecules, 2024).
